Assay results as given in ChEMBL document CHEMBL2440041, “5-Deazaflavin derivatives as inhibitors of p53 ubiquitination by HDM2” (Bioorg Med Chem, 2013).

Target: E3 ubiquitin-protein ligase Mdm2 (Homo sapiens, UniProt Q00987)
Sequence (Q00987 whole entry): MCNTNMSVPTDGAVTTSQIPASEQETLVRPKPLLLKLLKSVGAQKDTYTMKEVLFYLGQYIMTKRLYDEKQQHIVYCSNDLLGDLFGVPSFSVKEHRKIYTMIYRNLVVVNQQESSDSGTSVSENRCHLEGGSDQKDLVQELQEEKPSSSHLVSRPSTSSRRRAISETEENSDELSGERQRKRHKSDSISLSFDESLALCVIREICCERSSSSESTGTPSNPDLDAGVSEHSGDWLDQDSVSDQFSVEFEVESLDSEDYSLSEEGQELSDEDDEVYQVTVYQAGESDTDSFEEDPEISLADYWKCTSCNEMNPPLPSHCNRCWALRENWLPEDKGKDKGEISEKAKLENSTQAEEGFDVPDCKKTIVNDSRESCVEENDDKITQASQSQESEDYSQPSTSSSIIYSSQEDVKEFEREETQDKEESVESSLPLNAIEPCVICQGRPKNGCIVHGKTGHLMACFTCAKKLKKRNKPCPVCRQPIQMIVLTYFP
Description: Inhibition of GST-tagged HDM2 (unknown origin) assessed as p53 ubiquitination by Western blot analysis

SMILES | IC50
O=c1nc2n(-c3ccccc3F)c3c([N+](=O)[O-])cccc3cc-2c(=O)[nH]1 | > 100 µM
O=c1nc2n(-c3ccc(Cl)cc3)c3ccc([N+](=O)[O-])cc3cc-2c(=O)[nH]1 | > 75 µM
O=c1nc2n(-c3ccc(Cl)cc3)c3cccc(C(F)(F)F)c3cc-2c(=O)[nH]1 | > 100 µM
O=c1nc2n(-c3ccccc3)c3c(Br)cccc3cc-2c(=O)[nH]1 | > 100 µM
O=c1nc2n(Cc3ccccc3)c3c(C(F)(F)F)cccc3cc-2c(=O)[nH]1 | > 100 µM
O=c1nc2n(-c3ccc(Cl)cc3)c3cccc(Cl)c3cc-2c(=O)[nH]1 | > 100 µM
O=c1nc2n(-c3cccc(Cl)c3)c3c(Cl)cccc3cc-2c(=O)[nH]1 | > 100 µM
Cc1ccc2cc3c(=O)[nH]c(=O)nc-3n(-c3ccc(Cl)cc3)c2c1 | > 100 µM
O=c1nc2n(-c3ccccc3)c3c(Cl)cccc3cc-2c(=O)[nH]1 | > 100 µM
O=c1nc2n(-c3cccc(F)c3)c3c(Cl)cccc3cc-2c(=O)[nH]1 | > 100 µM
O=c1nc2n(-c3ccc(Cl)cc3)c3c([N+](=O)[O-])cccc3cc-2c(=O)[nH]1 | > 50 µM

Next, values leading:

IC50 | SMILES
> 100 µM | O=c1nc2n(-c3ccc(Cl)cc3)c3ccc(C(F)(F)F)cc3cc-2c(=O)[nH]1
19.6 µM | O=c1nc2n(-c3ccccc3F)c3c(C(F)(F)F)cccc3cc-2c(=O)[nH]1
> 100 µM | O=c1nc2n(-c3ccccc3F)c3ccc(Cl)cc3cc-2c(=O)[nH]1
13.1 µM | O=c1nc2n(-c3ccc(F)cc3)c3c(C(F)(F)F)cccc3cc-2c(=O)[nH]1
> 100 µM | O=c1nc2n(-c3ccc(Cl)cc3)c3cc(C(F)(F)F)ccc3cc-2c(=O)[nH]1
> 100 µM | O=c1nc2n(-c3ccccc3F)c3cc(C(F)(F)F)ccc3cc-2c(=O)[nH]1
